Tests used:
[1] = UV-visible absorption spectrum of photosensitiser; type: physicochemical
Description: (§1) For the acquisition of these spectra, the two molecules are mixed in the same aqueous solvent. The energy of the X-ray radiation is generally comprised between 1 and 20 keV and selected so as to be higher than an absorption threshold of the radioluminescent molecule, so that the radioluminescent molecule absorbs the X-ray radiation of energy and emits a luminescence radiation in the visible domain.

[2] = X-ray-excited luminescence (radioluminescence) spectrum; type: physicochemical; conditions: for emission band of X-ray-excited luminescence: c=177 mM
Description: as §1

[Al].c1ccc2c(c1)-c1nc-2nc2[nH]c(nc3nc(nc4[nH]c(n1)c1ccccc41)-c1ccccc1-3)c1ccccc21 [Al(III)Phthalocyanine]
absorption band superimposed with CeCl3 emission ([1]; aqueous medium, c=4 μM): around 350 nm

[Cl][Ce]([Cl])[Cl] [CeCl3, cerium chloride]
emission band of X-ray-excited luminescence ([2]; PBS pH=7.4): 300-400 nm | emission band of X-ray-excited luminescence ([2]; PEG:EtOH:H2O 3:2:5 v/v, X-ray 1-20 keV): 300-400 nm

[Cl][Eu]([Cl])[Cl] [EuCl3, europium chloride]
most intense of the three peaks observed ([2]; DMSO medium (FIG. 7)): 700 nm | most intense of the three peaks observed ([2]; aqueous medium (FIG. 2)): 600 nm

[Cl][Gd]([Cl])[Cl] [GdCl3, gadolinium chloride]
emission bands/peak of X-ray-excited luminescence ([2]; DMSO medium, EuCl3 c=96 mM, GdCl3 c=199 mM): around 320 nm

Oc1cccc(-c2c3nc(c(-c4cccc(O)c4)c4ccc([nH]4)c(-c4cccc(O)c4)c4nc(c(-c5cccc(O)c5)c5ccc2[nH]5)CC4)C=C3)c1 [mTHPC, meta-tetrahydroxyphenylchlorine]
most intense absorption band ([1]; PEG:EtOH:H2O 3:2:5 v/v, c=0.49 μM): around 400 nm

chlorine e6
most intense absorption band ([1]; PBS pH=7.4, c=0.8 μM): around 400 nm

Source: patent US20160271251A1, “RADIOLUMINESCENT COMPOUND FOR RADIOTHERAPY AND DEEP PHOTODYNAMIC THERAPY AND DEVICE FOR DEEP PHOTODYNAMIC THERAPY” (SYNCHROTRON SOLEIL, priority 2013, published 2016)
